Measured values as given in patent EP2106802A1, “Modified peptides as synthetic vaccines in amyloid-associated disease” (SIGMA-TAU Industrie Farmaceutiche Riunite S.p.A., priority 2008, dated 2009).
No end group written: not given here.

Experiments:
[1] = phase II studies, patients who received the vaccine; cited from earlier work
[2] = active vaccination, APP transgenic mice; cited from earlier work
[3] = test system: T lymphocytes expressing CXCR5 in PBMCs of healthy donors; assay: CXCR5 expression in T-lymphocytes after peptide stimulation (flow cytometry); assay type: cell-based, human; conditions: for Percentage of T-lymphocytes expressing CXCR5, 1st and 3rd quartine: 1st and 3rd quartile of 10 donors; for expression of CXCR5 with respect to CTR: T-lymphocytes, Friedman test, result in words; for Percentage of T-lymphocytes expressing CXCR5: peptides 5ug/ml, 4 days after third stimulation; for Percentage of T-lymphocytes expressing CXCR5, Median: median of 10 donors, * P = <0,001 (Friedman)
Procedure: In order to evaluate the expression of a specific marker (CXCR5) in cultured […], the cells, 4 days after the third stimulation, were washed twice and stained with anti-CXCR5, in PBS supplemented with 0.5% FCS and 0.01%NaN3 at 4°C. After twenty minutes they were washed twice and analysed on FACSCanto flow cytometer (Becton Dickinson). The data were analyzed using FlowJo software (TreeStar, CA, USA).
Table 3. The CXCR5 expression measured as % of T lymphocytes expressing CXCR5 in PBMCs of healthy donors vs total lymphocytes (median, 1st and 3rd quartile) has been reported. Friedman Repeated Measures Analysis of Variance on Ranks has been performed. Column 1: number of different donors (Pz); column 2: the percentage of control (CTR) not challenged T lymphocytes expressing CXCR5; columns 3-12: the percentage of T lymphocytes expressing CXCR5 after the stimulation with different peptides.
CXCR5, a chemokine transmembrane receptor belonging to the CXC chemokine receptor family plays an essential role in B cell activation (Legler D.F., et al., J. Exp. Med., 1998, 187, 4, 655). The CXCR5 expression was measured as % of T-lymphocytes expressing CXCR5 versus total lymphocytes (median, 1st and 3rd quartile) and Friedman Repeated Measures Analysis of Variance on Ranks was performed.

Procedure for IFN-γ: To do this, the T-lymphocytes form peripheral blood mononuclear cells (PBMCs) response to Aβ[1-42] and Aβ[1-16], Aβ[1-16]-G, Aβ[1-16]+G, Aβ[13-28], Aβ[13-28]-G, Aβ[13-28]+G, Aβ[25-42], Aβ[25-42]-G, Aβ[25-42]+G was studied with the following experimental procedure:
In order to obtain mature dentritic cells, PBMCs from healthy donors were isolated by Ficoll-Hypaque gradient centrifugation (Pharmacia, Uppsala, Sweden). The cells were washed twice with PBS and finally were cultured at 10^6 cells/ml in RPMI 1640 supplemented with 10% (v/v) heat inactivated human serum (Bio Whittaker; Cambrex, Bioscience, Walkersville, MD Usa), 2mM L-glutamine, 20mM HEPES [N-2-hydroxyethylpiperazine-N'-2-ethanesulfonic acid], 1mM sodium pyruvate, 20mM non-essential amino acids, 55 µM 2-β-mercaptoethanol, 10 U/ml penicillin and streptomycin (Gibco and Invitrogen).
In order to obtain a pure culture of human peripheral blood monocytes, cells were purified by plastic adherence at 37°C for 30 minutes, followed by extensive washing with warm PBS to remove non-adherent cells. The monocytes were cultured in six-well plates (0,5 to 1,5 * 10^6 cells/m) in fresh complete medium supplemented with 1000U/ml of recombinant granulocyte-macrophage colony-stimulating factor (rGM-CSF) and 500U/ml interleukin-4 (IL-4, Pharmigen) for four days. The non-adherent mononuclear cells were washed repeatedly and cultured in 96-well round bottom plates (Nunc, Denmark) (10^6 cell/ml) in complete culture medium supplemented with interleukin-2 (IL-2; 5U/ml; Roche) for 4 days and used for subsequent studies. Monocytes-derived immature dendritic cells (DCs) were stimulated with the Aβ[1-16], Aβ[1-16]-G, Aβ[1-16]+G, Aβ[13-28], Aβ[13-28]-G, Aβ[13-28]+G, Aβ[25-42], Aβ[25-42]-G, Aβ[25-42]+G and Aβ[1-42] peptides (5ug/ml) for 1 day. For induction of dentritic cells (DC) maturation, the cells were stimulated with 50ng/ml TNFα (Pharmigen), 10ng/ml IL-6, 10ng/ml IL-1β, and 1µg/ml PGE2 for additional 2 days. Finally, they were cultured with autologous T-lymphocytes in 96-well flat bottom plates at a 1:4 ratio. A second stimulation with mature autologous monocyte-derived DC's previously stimulated with the peptides was performed at 10-14 days at the same ratios. Following further 10-14 days, lymphocytes were labelled with CFDA challenged with a third stimulation of monocyte-derived DC in the presence of peptides.
In order to evaluate the amount of IFN-γ produced by lymphocytes after the final third peptides stimulation the supernatants from cultured cells were harvested at 24 or 48 hr after the third stimulation. Cytokines were quantified by a standard-2-site sandwich enzyme-liked immunosorbent assay (ELISA). Abs for human IFN-γ were purchased from Pharmigen. Enhanced protein-binding ELISA plates (Nunc Maxisorb, Nunc Maxi, Roskilde, Denmark) were used.

Substance | patients who developed meningoencephalitis [1] | amyloid pathology [2] | production of IFN-γ in challenged T-lymphocytes (IFN-γ) | Percentage of T-lymphocytes expressing CXCR5, 1st and 3rd quartine [3] | expression of CXCR5 with respect to CTR [3] | Percentage of T-lymphocytes expressing CXCR5 ([3]; donor Pz1) [%] | Percentage of T-lymphocytes expressing CXCR5 ([3]; donor Pz2) [%] | Percentage of T-lymphocytes expressing CXCR5 ([3]; donor Pz3) [%] | Percentage of T-lymphocytes expressing CXCR5 ([3]; donor Pz4) [%] | Percentage of T-lymphocytes expressing CXCR5 ([3]; donor Pz5) | Percentage of T-lymphocytes expressing CXCR5 ([3]; donor Pz7) | Percentage of T-lymphocytes expressing CXCR5, Median [3] | Percentage of T-lymphocytes expressing CXCR5 ([3]; donor Pz6) | Percentage of T-lymphocytes expressing CXCR5 ([3]; donor Pz8) [%] | Percentage of T-lymphocytes expressing CXCR5 ([3]; donor Pz9) [%] | Percentage of T-lymphocytes expressing CXCR5 ([3]; donor Pz10) [%]
AN1792: aggregated Aβ[1-42], first βA active vaccination (Pharmaceuticals Inc/Wyeth Pharmaceuticals) | about 6% | showed improvement in amyloid pathology |  |  |  |  |  |  |  |  |  |  |  |  |  | 
GGNGGGIGGGMGGGVGIG [Seq.10] |  |  | statistically significative production of IFN-γ |  |  |  |  |  |  |  |  |  |  |  |  | 
Seq.1: Aβ[1-42] synthetic peptide, neurotoxic β amyloid peptide [reference compound] |  |  | statistically significative production of IFN-γ | 8.6-40.2% | statistically different expression of CXCR5 with respect to CTR | 19.06 | 15.07 | 68.0 | 0.09 | 8,6% | 13,3% | 17.7* % |  |  |  | 
Seq.3: Aβ[1-16] fragment modified by introduction of glycines in alternate positions, at odd positions (-G) (GAGFGHGSGYGVGHGK) |  |  | statistically significative production of IFN-γ | 14.1-39.9% | statistically different expression of CXCR5 with respect to CTR | 16.05 | 20.05 | 64.01 | 2.09 | 9,5% | 14,7% | 30.6* % | 6,9% | 40.06 | 35.03 | 36.00
Seq.5: Aβ[13-28] fragment of the Aβ[1-42] sequence (HHQKLVFFAEDVGSNK) |  |  | statistically significative production of IFN-γ | 8.5-30.4% | statistically different expression of CXCR5 with respect to CTR | 15.05 | 23.05 | 12.08 | 1.02 | 8,5% | 13,5% | 14.5* % | 7,4% | 45.01 | 33.00 | 30.04
Seq.6: Aβ[13-28] fragment modified by introduction of glycines in alternate positions, at odd positions (-G) (GHGKGVGFGEGVGSGK) |  |  | statistically significative production of IFN-γ | 11.3-39.9% | statistically different expression of CXCR5 with respect to CTR | 22.04 | 23.03 | 25.09 | 0 | 13,4% | 14,6% | 21.7* % | 7,3% | 43.03 | 31.03 | 29.05
Seq.8: Aβ[25-42] fragment of the Aβ[1-42] sequence (GSNKGAIIGLMVGGVVIA) |  |  | statistically significative production of IFN-γ | 8.2-36.7% | statistically different expression of CXCR5 with respect to CTR | 19.00 | 13.06 | 64.04 | 0.08 | 8,2% | 15,8% | 17.4* % | 7,3% | 45.00 | 36.07 | 36.00
Seq.9: Aβ[25-42] fragment modified by introduction of glycines in alternate positions, at odd positions (-G) (GSGKGAGIGLGVGGGVGA) |  |  | statistically significative production of IFN-γ | 9.2-33.4% | statistically different expression of CXCR5 with respect to CTR | 23.01 | 15.02 | 11.03 | 0.08 | 11,3% | 13,4% | 14.9* % | 7,5% | 61.07 | 36.01 | 34.06
